Reference: article PMC9238401, “Peptide Conjugates Derived from flg15, Pep13, and PIP1 That Are Active against Plant-Pathogenic Bacteria and Trigger Plant Defense Responses” (Applied and Environmental Microbiology, 2022)
Non-standard residues stand in square brackets, D forms with d. Residues, ends and D or L forms follow the SMILES beside them. No end group written: not given here.

What was measured:
[1] = system: Xanthomonas arboricola pv. pruni CFBP5563; assay: In vitro growth inhibition (MIC); assay type: cell-based; settings: TSB, 25°C, 48 h, OD 600 nm (Bioscreen C), three replicates, experiment repeated twice; MIC given as range
Summary of the method: (§1)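 Bacterial suspensions (10^8 CFU mL^−1, from 24 h plates at 25°C) mixed with peptide dilutions in TSB, triplicate wells. OD600 read hourly over 48 h at 25°C with shaking. MIC = lowest concentration with no growth at end of run.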

[2] = system: Pseudomonas syringae pv. syringae EPS94; assay: In vitro growth inhibition (MIC); assay type: cell-based; settings: TSB, 25°C, 48 h, OD 600 nm (Bioscreen C), three replicates, experiment repeated twice; MIC given as range
Summary of the method: as §1

[3] = system: Erwinia amylovora PMV6076; assay: In vitro growth inhibition (MIC); assay type: cell-based; settings: TSB, 25°C, 48 h, OD 600 nm (Bioscreen C), three replicates, experiment repeated twice; MIC = lowest concentration with no growth, given as range
Summary of the method: as §1

[4] = system: Xanthomonas fragariae Xf349-9A; assay: In vitro growth inhibition (MIC); assay type: cell-based; settings: TSB, 25°C, 48 h, OD 600 nm (Bioscreen C), three replicates, experiment repeated twice; MIC given as range
Summary of the method: as §1

[5] = system: Pseudomonas syringae pv. actinidiae Psa3700.1.1; assay: In vitro growth inhibition (MIC); assay type: cell-based; settings: TSB, 25°C, 48 h, OD 600 nm (Bioscreen C), three replicates, experiment repeated twice; MIC given as range
Summary of the method: as §1

horse erythrocytes = settings: TRIS buffer pH 7.2, 1 h, 37°C, absorbance 540 nm, relative to melittin 100 μM, ± confidence interval (α = 0.05)
Summary of the method: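 Horse erythrocytes washed in 10 mM Tris, 150 mM NaCl, pH 7.2 were mixed 1:1 with compound solutions at 750, 500, 300 and 100 μM and shaken 1 h at 37°C. Hemoglobin release read at 540 nm in supernatant; % hemolysis relative to buffer and melittin control.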

tobacco leaves = assay: Effect of peptide infiltration on tobacco leaves (phytotoxicity); assay type: in vivo; settings: in vivo
Summary of the method: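 Peptide solutions at 50, 150 and 250 μM were infiltrated into the mesophyll of fully expanded tobacco leaves, with at least three leaves per peptide and dose on different plants. Water and equimolar melittin served as controls. Lesion diameter was measured 48 h after infiltration.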

[6] = system: plant-pathogenic bacteria (E. amylovora, X. arboricola pv. pruni, X. fragariae, X. axonopodis pv. vesicatoria, P. syringae pv. actinidiae, P. syringae pv. …); settings: 24 h
[7] = system: Xanthomonas axonopodis pv. vesicatoria 2133-2; settings: TSB, 25°C, 48 h, OD 600 nm (Bioscreen C), three replicates, experiment repeated twice; MIC given as range
Summary of the method: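 Bacteria grown 24 h (48 h for Xanthomonas axonopodis, X. fragariae) at 25°C, suspended at 10^8 CFU mL^−1, mixed with peptide dilutions in TSB.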

[8] = HPLC retention time as indicator of relative hydrophobicity; assay type: physicochemical; settings: chromatographic, Kromasil 100 C18 (4.6 mm × 40 mm, 3 μm), linear gradient 2 to 100% B over 12 min, 1 mL/min; A 0.1% aqueous TFA, B 0.1% TFA in CH3CN; used as indicator of relative hydrophobicity
Experimental: The parameters related to the structure of the peptide conjugates (sequence, charge, hydrophobic ratio [HR], and HPLC retention time), as well as their physicochemical properties (grand average hydropathicity [GRAVY] and hydrophobic moment [<μH>]) obtained from the online programs ProtParam (Expasy server) and HeliQuest are included in Table 1.
Peptides were analyzed under standard analytical HPLC conditions. Method A: peptides were analyzed with a Dionex liquid chromatography instrument composed of a UV/Vis Dionex UVD170U detector, a P680 Dionex pump, an ASI-100 Dionex automatic injector, and Chromeleon 6.60 software. Detection was performed at a wavelength of 220 nm. Solvent A was 0.1% aqueous trifluoroacetic acid (TFA), and solvent B was 0.1% TFA in CH3CN. Analyses were carried out with a Kromasil 100 C18 (4.6 mm × 40 mm, 3 μm) column with a linear gradient of 2 to 100% B over 7 min at a flow rate of 1 mL/min. Method B: peptides were analyzed with a 1260 Infinity II liquid chromatography instrument (Agilent Technologies) composed of a diode array detector HS, a quaternary pump VL, a 1260 vial sampler, and OpenLab CDS ChemStation software. Analyses were carried out with a Kromasil 100 C18 (4.6 mm × 40 mm, 3 μm) column with a linear gradient of 2 to 100% B over 12 min at a flow rate of 1 mL/min.

| Molecule | MIC, Xap [1] | MIC, Pss [2] | MIC, Ea [3] | MIC, Xf [4] | MIC, Psa [5] | Percent hemolysis at 50 μM (horse erythrocytes) | Percent hemolysis at 150 μM (horse erythrocytes) | Percent hemolysis at 250 μM (horse erythrocytes) | Percent hemolysis at 375 μM (horse erythrocytes) | Size of the lesions in infiltrated tobacco leaves at 50 μM (tobacco leaves) | Size of the lesions in infiltrated tobacco leaves at 150 μM (tobacco leaves) | Size of the lesions in infiltrated tobacco leaves at 250 μM (tobacco leaves) | MIC against four pathogens [6] | MIC, Xav [7] | tR (min), HPLC retention time (method B) [8] | MIC against all the bacteria tested (span over the six pathogens) [6] |
| --- | --- | --- | --- | --- | --- | --- | --- | --- | --- | --- | --- | --- | --- | --- | --- | --- |
| KKLFKKILKYLVWNQPVRGFKVYE [BP100-Pep13] | 1.6 to 3.1 µM | 1.6 to 3.1 µM | 0.8 to 1.6 µM | 3.1 to 6.2 µM | 0.8 to 1.6 µM | 5 ± 0.3% | 12 ± 1.1% | 20 ± 2.4% | 30 ± 3.2% | 0.04 ± 0.08 cm | 0.32 ± 0.11 cm | 0.42 ± 0.10 cm | 0.8 to 3.1 µM | 1.6 to 3.1 µM | 5.53 min | – |
| CC[C@H](C)[C@H](NC(=O)[C@H](CCCCN)NC(=O)[C@H](CCCCN)NC(=O)[C@@H](Cc1ccccc1)NC(=O)[C@H](CC(C)C)NC(=O)[C@H](CCCCN)NC(=O)[C@@H](N)CCCCN)C(=O)N[C@@H](CC(C)C)C(=O)N[C@@H](CCCCN)C(=O)N[C@@H](Cc1ccc(O)cc1)C(=O)N[C@@H](CC(C)C)C(=O)N[C@H](C(=O)N[C@@H](Cc1c[nH]c2ccccc12)C(=O)N[C@@H](CC(N)=O)C(=O)N[C@@H](CCC(N)=O)C(=O)N1CCC[C@H]1C(=O)N[C@H](C(=O)N[C@@H](CCCNC(=N)N)C(=O)NCC(=O)N[C@@H](Cc1ccccc1)C(=O)N[C@@H](CCCCN)C(=O)N[C@H](C(=O)N[C@@H](Cc1ccc(O)cc1)C(=O)N[C@@H](CCC(=O)O)C(=O)O)C(C)C)C(C)C)C(C)C [BP143-Pep13] (H-KKL[dF]KKILKYLVWNQPVRGFKVYE-OH) | 1.6 to 3.1 µM | 1.6 to 3.1 µM | 1.6 to 3.1 µM | 6.2 to 12.5 µM | 0.8 to 1.6 µM | 5 ± 1.9% | 9 ± 0.4% | 16 ± 1.9% | 29 ± 0.9% | 0.10 ± 0.12 cm | 0.44 ± 0.16 cm | 0.60 ± 0.25 cm | – | 1.6 to 3.1 µM | 5.62 min | 0.8 to 12.5 µM |
| VWNQPVRGFKVYEKKLFKKILKKL-NH2 [Pep13-BP16] | 0.8 to 1.6 µM | 6.2 to 12.5 µM | 6.2 to 12.5 µM | 3.1 to 6.2 µM | 1.6 to 3.1 µM | 2 ± 0.6% | 3 ± 0.2% | 4 ± 0.3% | 4 ± 0.2% | 0.23 ± 0.07 cm | 0.52 ± 0.14 cm | 0.93 ± 0.19 cm | – | 0.8 to 1.6 µM | 5.70 min | 0.8 to 12.5 µM |
| KKLFKKILKKLVWNQPVRGFKVYE [BP16-Pep13] | 0.8 to 1.6 µM | 1.6 to 3.1 µM | 6.2 to 12.5 µM | 1.6 to 3.1 µM | 1.6 to 3.1 µM | 1 ± 0.4% | 1 ± 0.3% | 1 ± 0.5% | 2 ± 0.4% | 0.23 ± 0.13 cm | 0.45 ± 0.12 cm | 1.02 ± 0.32 cm | – | 1.6 to 3.1 µM | 5.12 min | 0.8 to 12.5 µM |
